Assay results reported in patent publication US6656921B1, “Use of zinc hyaluronate against peptic ulcer” (Richter Gedeon Vegyeszeti Gyar RT., priority 1997, dated 2003).

How the values were obtained:
[1] = system: platelet activating factor (PAF) induced gastric lesion; assay: Inhibition of gastric damage induced by platelet activating factor (PAF); assay type: in vivo, rat; details: for Inhibition: 30 min before PAF; for Lesion score/stomach ± S.E.M.: 30 min before PAF infusion, score 0-3
Procedure: Male, RG-Wistar rats weighing between 200-250 g were used. Before the experiments animals were fasted for 24 hours but received water ad libitum. Experiments were carried out according to the technique similar to that described by Wallace and Whittle (1986). [Br.J.Pharmac., 89,415, (1986)]. Animals were anaesthetized by intraperitoneal administration of urethane at a dose of 1 g/kg in a volume of 10 ml/kg. Femoral vein was then prepared and cannulated for administration of ulcerogenic PAF. After the surgery PAF was infused intravenously at a rate of 0.1 ml/min for ten minutes at a dose of 200 ng/kg/min. Test compounds were given 30 minutes before the PAF challenge. One hour after the infusion of PAF animals were sacrificed by cervical dislocation; their stomachs were removed and opened along the greater curvature. The hemorrhagic erosions were evaluated by a zero to three scoring system.

[2] = system: indomethacin induced gastric lesion; assay: Inhibition of indomethacin induced gastric lesion; assay type: in vivo, rat; details: for Inhibition: 30 min before indomethacin; for Lesion number/stomach ± S.E.M.: 30 min before indomethacin 40 mg/kg s.c.
Procedure: 2. Inhibition of Indomethacin Induced Gastric Lesion Female RG Wistar rats weighing between 120-150 g were used. Before the experiments animals were fasted for 24 hours but received water ad libitum. Test compounds were given orally, 30 minutes later the animals were treated subcutaneously with indomethacin at a dose of 40 mg/kg. Four hours after the irritating indomethacin administration the animals were killed by cervical dislocation. The stomachs were removed, opened along the greater curvature and the hemorrhagic lesions were counted on the glandular stomach.
ED50 value represents the dose which protects the stomach by 50 % from the damaging effect of indomethacin.

Question: For zinc hyaluronate [Zinc hyaluronate (M)], which Inhibition ([1]; 50 mg/kg p.o.) is on record?
Answer: Its Inhibition is 27.3%.

Question: What about the “Lesion score/stomach ± S.E.M.” value ([1]; 50 mg/kg p.o.) of the same substance?
Answer: The value was 1.6 ± 0.4.

Question: And the Inhibition ([1]; 100 mg/kg p.o.)?
Answer: Its Inhibition is 40.9%.

Question: And the “Lesion score/stomach ± S.E.M.” value ([1]; 100 mg/kg p.o.)?
Answer: Its value is 1.3 ± 0.2.

Question: What about the “Protection against ulcerogenic effect of PAF (in words)” value ([1]; rat, in vivo) of the same substance?
Answer: Its value is “strongly reduced the ulcerogenic effect of PAF”.

Question: And the Inhibition ([2]; 1.0 mg/kg p.o.)?
Answer: Its Inhibition is 15.7%.

Question: What about the “Lesion number/stomach ± S.E.M.” value ([2]; 1.0 mg/kg p.o.) of the same substance?
Answer: Its value is 15.6 ± 6.2.

Question: And the Inhibition ([2]; 10.0 mg/kg p.o.)?
Answer: Its Inhibition is 68.1%.

Question: What about the “Lesion number/stomach ± S.E.M.” value ([2]; 10.0 mg/kg p.o.) of the same substance?
Answer: The value was 5.9 ± 1.9.

Question: And the Inhibition ([2]; 100 mg/kg p.o.)?
Answer: Its Inhibition is 89.2%.

Question: And the “Lesion number/stomach ± S.E.M.” value ([2]; 100 mg/kg p.o.)?
Answer: The value was 2.0 ± 0.9.

Question: What about the “ED50 (dose protecting the stomach by 50% from indomethacin)” value ([2]; p.o.) of the same substance?
Answer: Its value is 6.2 mg/kg.
